One data set has as its system human hepatocytes. As to the kind of experiment: Metabolite study in human hepatocyte incubation system. Type of data set: in vitro ADME. The conditions noted are these: 180 min incubation, LC-MS. As to the method: (§1) Example 28: Study on Metabolites of Compound in Human and Rat Hepatocyte Incubation System
(§2) 1. Preparation of Stock and Working Solutions
(§3) Stock solution: A proper amount of test sample powders was dissolved in DMSO or other proper solvents, and the mixture was well mixed to give a stock solution (10 mM). The stock solution was preserved in a refrigerator at 4° C. for later use.
(§4) Working solution: The 10 mM stock solution was diluted to 1 mM working solution using acetonitrile, and well mixed for later use.
(§5) 2. Preparation of Thawing Medium I
(§6) Williams' Medium E, glutamate, HEPES, fetal bovine serum albumin, human recombinant insulin, dexamethasone, and cell separation medium (Percoll™) were mixed in a ratio of 700:10:15:50:1:0.1:300 for use.
(§7) 3. Preparation of Terminating Solution
(§8) An acetonitrile solution containing 0.1% formic acid was prepared as the terminating solution and preserved in a refrigerator at 4° C. for use.
(§9) 4. Isolation and Preparation of Hepatocyte Suspension
(§10) The cryopreserved hepatocytes were thawed in a water bath at 37° C. for about 90 s, and quickly poured into the pre-heated isolating buffer. Residual hepatocytes were washed using the isolating buffer. Cells were combined and mixed well, and centrifuged at room temperature for 5 min at 100×g. The supernatant was discarded and the cells were resuspended using pre-heated William' Medium E. 20 μL of hepatocyte suspension was added into 100 μL of 0.4% Trypan blue. The cells were counted, and a cell viability over 70% was required. The hepatocyte density was adjusted to 1.25×10^6 cells/mL using William' Medium E.
(§11) 5. Incubation and Treatment of Samples
(§12) 1) The test compound working solution was pre-incubated (pre-heated) in a constant-temperature incubator at 37° C. for 10 min. 2 μL of the working solution (1 mM) was pipetted to a cell culture plate containing 160 μL of hepatocyte suspension at 1.25×10^6 cells/mL, and the mixture was well mixed. 38 μL of Williams' Medium E was added. The mixture was well mixed and incubated in an incubator (in a total volume of 200 μL), and the timer was started. For the blank control, […] of Williams' Medium E was added instead of the working solution. For 0-min samples, 400 μL of acetonitrile (containing 0.1% formic acid) was added, followed by the working solution and Williams' Medium E.
(§13) 2) After 180 min of incubation, the samples were measured for the cell viability. Then 400 μL of acetonitrile (containing 0.1% formic acid) solution was added to terminate the reaction.
(§14) 3) After the reaction was terminated, the plate was shaken on a shaker at 300 rpm for 10 min, followed by centrifugation at least 10000×g for at least 10 min. After centrifugation, the supernatant was all transferred to centrifuge tubes and dried with nitrogen.
(§15) 4) The residues were re-dissolved in a suitable solvent, and centrifuged at least 10000×g for at least 15 min at room temperature. The supernatant was transferred to a sample analysis plate for LC-MS analysis.
(§16) 5) The methodology for 7-ethoxycoumarin (30 μM) was the same as that of test samples. Samples of the test compounds after incubation were used for metabolite assay only when the target metabolite was detected in the positive control sample. Otherwise, the above experiment should be repeated.
(§17) 6. Data Acquisition and Analysis […]

In a further data set the test system is rat hepatocytes. As to the kind of experiment: Metabolite study in rat hepatocyte incubation system. Type of data set: in vitro ADME. The conditions noted are these: 180 min incubation, LC-MS. As to the method:
as §1, §2, §3, §4, §5, §6, §7, §8, §9, §10, §11, §12, §13, §14, §15, §16, §17

Data set [1] is described as follows: Pharmacokinetics in male SD rats (i.v. and p.o.). It is filed as in vivo. To be noted: Sprague-Dawley (SD), rat, plasma, po, p.o. 10 mg/kg vs i.v. 1 mg/kg. As to the method: Example 29: Pharmacokinetics
Methodology for pharmacokinetics of compounds in rats:
1. Male SD rats were acclimatized in the animal room for 7 days after arrival.
2. Six SD rats were randomized into 2 groups, with 3 animals in each group. One group was administered by oral gavage (p.o.), and the other group was treated via tail vein injection (i.v.). Rats in the p.o. group were deprived of food overnight before administration.
3. After administration, about 200 μL of blood was collected from the orbital venous plexus at various time points.
4. The collected blood samples were centrifuged at 12000 rpm for 5 min at 4° C., and then the upper plasma samples were collected and preserved in a refrigerator at −20° C.
5. The procedures were summarized as follows:
6. LC-MS/MS (UPLC-MS/MS: liquid chromatography Waters Acquity UPLC (USA) and mass spectrometry 5500 Q Trap (Applied Biosystem/MDS SCIEX) or HPLC-MS\MS: liquid chromatography Agilent 1200 series (USA) and mass spectrometry API 4000 (Applied Biosystem/MDS SCIEX)) were used to determine the concentration of the compound in the plasma.
The pharmacokinetic parameters were calculated using the pharmacokinetic software WinNonlin [Model: Phoenix™ WinNonlin® 6.1; Manufacturer: Pharsight Corporation]. [Phoenix 1.1 User's Guide: p 251-p 300]

Data set [2] has as its system primary human hepatocytes. As to the kind of experiment: Cytotoxicity assay on primary human hepatocytes (CellTiter-Glo, 48 h). Type of data set: cell-based. To be noted: Hepatocyte, cell viability, 48 h incubation. Here is the method:
Example 26: Cytotoxicity Assay of Compounds on Primary Human Hepatocytes
Primary human hepatocytes were purchased from Biorecamation IVT. Co., Ltd. (lot no.: AKB/S1391); the components of in vitro culture media of primary human cell and suppliers are as follows:
1. Frozen primary human hepatocytes were thawed, then resuspended in a culture medium containing 10% FBS. The cells were transferred into a 96-well plate, at 8×10^4 cells/well, followed by incubating overnight in an incubator at 5% CO2 at 37° C.;
2. […] The test compounds and control drug were added to wells, at 100 μL/well, to form test compound wells or reference wells, and the culture medium containing 10% FBS was added to wells, at 100 μL/well, as negative control. The cells were incubated in an incubator in the presence of 5% CO2 at 37° C. for 48 h.
3. The primary human hepatocytes were washed with PBS (0.1 M, pH=7.4) twice, and were added with CellTiter-Glo reagent at 100 μL/well. Cell-free wells added with CellTiter-Glo reagent at 100 μL/well served as the blank control. The 96-well plate was shaken on a shaker for 5 min, and then left at room temperature for 10 min.
4. The chemiluminescence values were detected using Victor X4 (Perkin Elmer). The chemiluminescence values of the test compound wells were denoted as F(test compound), the chemiluminescence values of the blank control wells were denoted as F(blank), and the chemiluminescence values of the negative control wells were denoted as F(negative control). The cell viabilities at different concentrations were calculated according to the following formula. Each concentration was measured in triplicate to give the average and the standard deviation.
5. The half maximal inhibitory concentration (IC50) of the test compounds to the primary human hepatocytes were calculated using Prism Graph software.

The text below walks through data of patent US11453674B2, “Heterocyclic compound, preparation method and use thereof in medicine” (SUZHOU SINOVENT PHARMACEUTICALS CO., LTD., priority 2019, dated 2022).

As usually defined, the bioavailability is dose-corrected exposure relative to a reference, in per cent. Low values mean poor availability, high ones good availability. For orientation: IC50 means the concentration at which inhibition is half-maximal. A high value points to lower potency.

On to `CCc1nc2ncccn2c1C(=O)c1cc(Br)c(O)c(Br)c1` [Example 20, 2,6-dibromo-4-([2-ethylimidazo[1,2-a]pyrimidin-3-yl]carbonyl) phenol], for which the “toxic metabolites of benzbromarone type” value with human hepatocytes and in the data set with rat hepatocytes was “not observed” throughout. The bioavailability in data set [1] was > 30%.
On to `CCc1nc2ncc(F)cn2c1C(=O)c1cc(Br)c(O)c(Br)c1` [Example 4, (3,5-dibromo-4-hydroxyphenyl)(2-ethyl-6-fluoroimidazo[1,2-a]pyrimidin-3-yl)methanone], for which the concentration for half-maximal inhibition (IC50) in data set [2] stood at 257 µM. Besides, the “toxic metabolites of benzbromarone type” value in the data set on human hepatocytes and in the data set with rat hepatocytes was “not observed” each time. The bioavailability in data set [1] was > 30%.
`CCc1nc2cc(Cl)ncn2c1C(=O)c1cc(Br)c(O)c(Br)c1` [Example 21, (7-chloro-2-ethylimidazo[1,2-f]pyrimidin-3-yl)(3,5-dibromo-4-hydroxyphenyl)methanone] had an IC50 in data set [2] of 347 µM. The “toxic metabolites of benzbromarone type” value in the data set with human hepatocytes and with rat hepatocytes was “not observed” each time. Besides, in data set [1], the bioavailability was > 30%.
On to `CCc1nc2ncc(C(F)(F)F)cn2c1C(=O)c1cc(Br)c(O)c(Br)c1` [Example 5, (3,5-dibromo-4-hydroxyphenyl)(2-ethyl-6-(trifluoromethyl)imidazo[1,2-a]pyrimidin-3-yl)methanone], for which, in data set [2], the IC50 was 77.8 µM. Besides, the “toxic metabolites of benzbromarone type” value in the data set on human hepatocytes and in the data set with rat hepatocytes was “not observed” throughout. The bioavailability in data set [1] is > 30%.
With `CCc1nc2ncc(F)cn2c1C(=O)c1cc(Br)c(O)c(C#N)c1` [Example 14, 3-bromo-5-(2-ethyl-6-fluoroimidazo[1,2-a]pyrimidine-3-carbonyl)-2-hydroxybenzonitrile], in data set [2], the IC50 was ≥ 1000 µM. For the same molecule, the “toxic metabolites of benzbromarone type” value with human hepatocytes and in the data set with rat hepatocytes was “not observed” each time. Also, the bioavailability in data set [1] is > 30%.
